According to patent US20100267561A1, “HERBICIDAL PYRIDAZINONE DERIVATIVES” (priority 2007, published 2010):

Key:
Format in all cases: in vivo
[1] = tested on: chickweed (Stellaria media); assay: Test B postemergence plant response; details: for Chickweed plant response rating: 8 g ai/ha, postemergence, 0-100 scale; for Plant response rating, Chickweed: Postemergence
How it was run: (§1)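 Following treatment of plants 2 to 18 cm high after emergence, pots were held under glass for 13 to 15 days; efficacy was then graded visually, 100 denoting complete control and a dash no test result.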

[2] = tested on: windgrass (Apera spica-venti); assay: Test B postemergence plant response; details: for Windgrass plant response rating: 8 g ai/ha, postemergence, 0-100 scale; for Plant response rating, Windgrass: Postemergence
How it was run: as §1

[3] = tested on: winter barley (Hordeum vulgare); assay: Test B postemergence plant response; details: for Barley plant response rating: 8 g ai/ha, postemergence, 0-100 scale; for Plant response rating, Barley: Postemergence, scale 0 to 100, 0 no effect, 100 complete control
How it was run: as §1

[4] = tested on: canarygrass (Phalaris minor); assay: Test B postemergence plant response; details: for Canarygrass plant response rating: 8 g ai/ha, postemergence, 0-100 scale; for Plant response rating, Canarygrass: Postemergence
How it was run: as §1

[5] = tested on: barnyardgrass (Echinochloa crus-galli); assay: Test B flooded paddy test plant response
How it was run: (§2)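 Paddy-water application to 2-leaf plants in pots held under 3 cm of flooding; response is a 0–100 visual control rating against controls after 13 to 15 days, and a dash marks a missing result.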

[6] = tested on: umbrella sedge (Cyperus difformis); assay: Test B flooded paddy test plant response
How it was run: as §2

[7] = tested on: ducksalad (Heteranthera limosa); assay: Test B flooded paddy test plant response
How it was run: as §2

[8] = tested on: velvetleaf (Abutilon theophrasti); assay: Test A pre-/postemergence plant response
How it was run: (§3)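 Scores reflect visual plant injury relative to untreated controls on a 0–100 scale, recorded approximately 10 days after simultaneous preemergence soil spraying and postemergence spraying of one- to two-leaf seedlings grown in loam–sand.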

[9] = tested on: wheat (Triticum aestivum); assay: Test A pre-/postemergence plant response
How it was run: as §3

[10] = tested on: barnyardgrass (Echinochloa crus-galli); assay: Test A pre-/postemergence plant response
How it was run: as §3

[11] = tested on: giant foxtail (Setaria faberi); assay: Test A pre-/postemergence plant response
How it was run: as §3

[12] = tested on: pigweed (Amaranthus retroflexus); assay: Test A pre-/postemergence plant response
How it was run: as §3

[13] = tested on: morningglory (Ipomoea coccinea); assay: Test A pre-/postemergence plant response
How it was run: as §3

[14] = tested on: large crabgrass (Digitaria sanguinalis); assay: Test A pre-/postemergence plant response
How it was run: as §3

[15] = 31 g ai/ha, scale 0 to 100, 0 no effect, 100 complete control
[16] = 62 g ai/ha, scale 0 to 100, 0 no effect, 100 complete control
[17] = Flood (flooded paddy test), 62 g ai/ha, scale 0 to 100, 0 no effect, 100 complete control
[18] = Flood (flooded paddy test), 125 g ai/ha, scale 0 to 100, 0 no effect, 100 complete control
[19] = Flood (flooded paddy test), 250 g ai/ha, scale 0 to 100, 0 no effect, 100 complete control
[20] = Flood, 31 g ai/ha, scale 0 to 100
[21] = Postemergence, 31 g ai/ha, 0 to 100 scale, 0 no effect, 100 complete control
[22] = Postemergence, 125 g ai/ha, 0 to 100 scale, 0 no effect, 100 complete control
[23] = Preemergence, 31 g ai/ha, 0 to 100 scale, 0 is no effect, 100 is complete control
[24] = Preemergence, 125 g ai/ha, 0 to 100 scale (0 no effect, 100 complete control)

Cc1cc(-c2ccc(Cl)cc2)nn1-c1c(OC(=O)c2ccccc2Cl)cnn(C)c1=O [Compound 38]
Chickweed plant response rating [1]: 0 | Plant response rating, Chickweed ([1]; 16 g ai/ha, scale 0 to 100): 0 | Plant response rating, Chickweed [1, 15]: 0 | Plant response rating, Chickweed [1, 16]: 0 | Windgrass plant response rating [2]: 0 | Plant response rating, Windgrass ([2]; 16 g ai/ha, scale 0 to 100): 0 | Plant response rating, Windgrass [2, 16]: 80 | Barley plant response rating [3]: 0 | Plant response rating, Barley ([3]; 16 g ai/ha): 0 | Plant response rating, Barley ([3]; 31 g ai/ha): 10 | Plant response rating, Barley ([3]; 62 g ai/ha): 10 | Canarygrass plant response rating [4]: 0 | Plant response rating, Canarygrass ([4]; 16 g ai/ha, scale 0 to 100): 0 | Plant response rating, Canarygrass [4, 15]: 10 | Plant response rating, Canarygrass [4, 16]: 30 | Plant response rating, Barnyardgrass [5, 17]: 95 | Plant response rating, Barnyardgrass [5, 18]: 95 | Plant response rating, Barnyardgrass [5, 19]: 95 | Plant response rating, Barnyardgrass [5, 20]: 20 | Plant response rating, Sedge, Umbrella [6, 18]: 70 | Plant response rating, Sedge, Umbrella [6, 19]: 70 | Plant response rating, Sedge, Umbrella [6, 20]: 20 | Plant response rating, Ducksalad [7, 18]: 30 | Plant response rating, Ducksalad [7, 19]: 40 | Plant response rating, Ducksalad [7, 20]: 40 | Plant response rating, Velvetleaf [8, 21]: 0 | Plant response rating, Velvetleaf [8, 22]: 0 | Plant response rating, Velvetleaf [8, 23]: 0 | Plant response rating, Velvetleaf [8, 24]: 0 | Plant response rating, Wheat [9, 21]: 0 | Plant response rating, Wheat [9, 22]: 60 | Plant response rating, Wheat [9, 23]: 20 | Plant response rating, Wheat [9, 24]: 60 | Plant response rating, Barnyardgrass [10, 21]: 40 | Plant response rating, Barnyardgrass [10, 22]: 100 | Plant response rating, Barnyardgrass [10, 23]: 90 | Plant response rating, Barnyardgrass [10, 24]: 100 | Plant response rating, Foxtail, Giant [11, 21]: 80 | Plant response rating, Foxtail, Giant [11, 22]: 90 | Plant response rating, Foxtail, Giant [11, 23]: 90 | Plant response rating, Foxtail, Giant [11, 24]: 100 | Plant response rating, Pigweed [12, 21]: 0 | Plant response rating, Pigweed [12, 22]: 0 | Plant response rating, Pigweed [12, 23]: 0 | Plant response rating, Pigweed [12, 24]: 0 | Plant response rating, Morningglory [13, 21]: 0 | Plant response rating, Morningglory [13, 22]: 0 | Plant response rating, Morningglory [13, 23]: 0 | Plant response rating, Morningglory [13, 24]: 0 | Plant response rating, Crabgrass, Large [14, 21]: 40 | Plant response rating, Crabgrass, Large [14, 22]: 100 | Plant response rating, Crabgrass, Large [14, 23]: 90 | Plant response rating, Crabgrass, Large [14, 24]: 100

CCCc1cc(-c2ccc(Cl)cc2)nn1-c1c(O)cnn(C)c1=O [Compound 43]
Chickweed plant response rating [1]: 0 | Plant response rating, Chickweed ([1]; 16 g ai/ha, scale 0 to 100): 0 | Plant response rating, Chickweed [1, 15]: 0 | Plant response rating, Chickweed [1, 16]: 0 | Windgrass plant response rating [2]: 50 | Plant response rating, Windgrass ([2]; 16 g ai/ha, scale 0 to 100): 70 | Plant response rating, Windgrass [2, 16]: 100 | Barley plant response rating [3]: 20 | Plant response rating, Barley ([3]; 16 g ai/ha): 50 | Plant response rating, Barley ([3]; 62 g ai/ha): 50 | Canarygrass plant response rating [4]: 30 | Plant response rating, Canarygrass ([4]; 16 g ai/ha, scale 0 to 100): 50 | Plant response rating, Canarygrass [4, 15]: 50 | Plant response rating, Canarygrass [4, 16]: 95 | Plant response rating, Barnyardgrass [5, 17]: 50 | Plant response rating, Barnyardgrass [5, 18]: 75 | Plant response rating, Barnyardgrass [5, 20]: 40 | Plant response rating, Sedge, Umbrella [6, 17]: 0 | Plant response rating, Sedge, Umbrella [6, 18]: 0 | Plant response rating, Sedge, Umbrella [6, 19]: 0 | Plant response rating, Sedge, Umbrella [6, 20]: 0 | Plant response rating, Ducksalad [7, 17]: 0 | Plant response rating, Ducksalad [7, 18]: 0 | Plant response rating, Ducksalad [7, 19]: 30 | Plant response rating, Ducksalad [7, 20]: 0 | Plant response rating, Velvetleaf [8, 21]: 0 | Plant response rating, Velvetleaf [8, 22]: 0 | Plant response rating, Velvetleaf [8, 23]: 0 | Plant response rating, Velvetleaf [8, 24]: 0 | Plant response rating, Wheat [9, 21]: 40 | Plant response rating, Wheat [9, 22]: 80 | Plant response rating, Wheat [9, 23]: 20 | Plant response rating, Wheat [9, 24]: 70 | Plant response rating, Barnyardgrass [10, 21]: 90 | Plant response rating, Barnyardgrass [10, 22]: 100 | Plant response rating, Barnyardgrass [10, 23]: 100 | Plant response rating, Barnyardgrass [10, 24]: 100 | Plant response rating, Foxtail, Giant [11, 21]: 80 | Plant response rating, Foxtail, Giant [11, 22]: 100 | Plant response rating, Foxtail, Giant [11, 23]: 90 | Plant response rating, Foxtail, Giant [11, 24]: 100 | Plant response rating, Pigweed [12, 21]: 0 | Plant response rating, Pigweed [12, 22]: 0 | Plant response rating, Pigweed [12, 23]: 0 | Plant response rating, Pigweed [12, 24]: 0 | Plant response rating, Morningglory [13, 21]: 0 | Plant response rating, Morningglory [13, 22]: 0 | Plant response rating, Morningglory [13, 23]: 0 | Plant response rating, Morningglory [13, 24]: 0 | Plant response rating, Crabgrass, Large [14, 21]: 40 | Plant response rating, Crabgrass, Large [14, 22]: 90 | Plant response rating, Crabgrass, Large [14, 23]: 10 | Plant response rating, Crabgrass, Large [14, 24]: 90
